Results reported in patent publication US7943340B2, “Fungal dipeptidyl peptidase IV (DPPIV) enzyme for reagent use” (priority 2003, dated 2011).
Like-named read-outs stand apart in the source and are kept apart here.

Key:
[1] = target: ruLAP1 (Trichophyton rubrum, UniProt Q5QHG5); assay type: biochemical; conditions: for ruLAP1 hydrolytic activity, percentage of control without any cation / ruLAP1 hydrolytic activity, percentage of control without inhibitor: Leu-MCA substrate
Protocol: (§1) Inhibitors and metallic cations were pre-incubated with the enzymes for 15 min at 37° C. Then, Leu-AMC at a 5 mM final concentration was added. After further incubation for 60 min, enzyme activity was measured as described above. The inhibitors and their concentrations tested purified LAPs were: 500 μM amastatin (Bachem), 40 μM benzamidine (Sigma), 500 μM bestatin (Bachem), 5 mM/l mM EDTA (Sigma). 100 μM E-64 (L-trans-epoxysuccinyl-leu-4-guanidinobutylamide) (Bachem), 100 μM leupeptin (Sigma), 5 mM/1 mM ortho-phenanthroline (Sigma), 500 μM p-chloromercuribenzoic acid (Sigma), 100 μM pepstatin A (Sigma), 40 μM PMSF (Sigma), 20 μM TLCK (Roche Diagnostics), and 20 μM TPCK (Roche Diagnostics).

[2] = target: ruLAP2 (Trichophyton rubrum, UniProt Q5QHG6); assay type: biochemical; conditions: for ruLAP2 hydrolytic activity, percentage of control without any cation / ruLAP2 hydrolytic activity, percentage of control without inhibitor: Leu-MCA substrate; for effect of inhibitor on ruLAP2 activity: Leu-AMC 5 mM, inhibitor concentrations
Chain of ruLAP2 (Q5QHG6 22-495): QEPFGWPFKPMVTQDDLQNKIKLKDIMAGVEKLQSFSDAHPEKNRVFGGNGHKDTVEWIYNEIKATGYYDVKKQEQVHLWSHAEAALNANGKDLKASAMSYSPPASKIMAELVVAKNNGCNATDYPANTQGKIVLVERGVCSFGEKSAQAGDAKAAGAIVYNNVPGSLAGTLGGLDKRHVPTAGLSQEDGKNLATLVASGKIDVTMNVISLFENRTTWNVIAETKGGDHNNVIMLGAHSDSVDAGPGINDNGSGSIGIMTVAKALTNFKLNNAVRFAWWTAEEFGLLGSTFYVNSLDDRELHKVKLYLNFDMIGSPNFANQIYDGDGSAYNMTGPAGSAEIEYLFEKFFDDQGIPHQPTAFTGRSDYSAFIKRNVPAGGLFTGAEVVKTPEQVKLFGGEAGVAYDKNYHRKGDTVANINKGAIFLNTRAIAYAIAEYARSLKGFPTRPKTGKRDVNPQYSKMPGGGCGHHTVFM
Protocol: as §1

[3] = tested on: all the LAPs tested (ruLAP1, ruLAP2, fuLAP1, fuLAP2, pkLAP); assay type: biochemical; conditions: for effect of inhibitor on all the LAPs tested: Leu-AMC 5 mM, amastatin 500 μM, ortho-phenantroline 1 and 5 mM, others as
Protocol: as §1

[4] = target: fuLAP1 (Aspergillus fumigatus, UniProt Q5VJG6); assay type: biochemical; conditions: for fuLAP1 hydrolytic activity, percentage of control without any cation / fuLAP1 hydrolytic activity, percentage of control without inhibitor: Leu-MCA substrate
Chain of fuLAP1 (Q5VJG6 15-388, looked up, natural form): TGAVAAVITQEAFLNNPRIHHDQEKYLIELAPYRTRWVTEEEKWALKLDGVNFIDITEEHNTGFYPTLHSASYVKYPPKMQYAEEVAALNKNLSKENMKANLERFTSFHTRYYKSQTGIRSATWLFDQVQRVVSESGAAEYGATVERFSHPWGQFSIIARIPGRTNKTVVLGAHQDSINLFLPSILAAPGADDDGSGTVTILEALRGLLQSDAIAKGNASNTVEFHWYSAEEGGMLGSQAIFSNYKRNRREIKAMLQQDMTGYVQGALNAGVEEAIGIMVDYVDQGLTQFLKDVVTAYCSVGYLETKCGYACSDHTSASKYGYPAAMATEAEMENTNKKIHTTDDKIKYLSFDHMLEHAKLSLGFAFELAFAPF
Protocol: as §1

[5] = target: T1, pkLAP (microsomal LAP from porcine kidney) (Sus scrofa, UniProt P15145); experiment: Effect of chemical reagents (inhibitors, metallic cations) on LAP activity with Leu-AMC; assay type: biochemical; conditions: for pkLAP hydrolytic activity, percentage of control without any cation / pkLAP hydrolytic activity, percentage of control without inhibitor: Leu-MCA substrate; for effect of divalent cation on pkLAP activity: Leu-AMC substrate
T1 construct: purchased Sigma; host or cells: porcine kidney
T1 sequence (P15145 1-963): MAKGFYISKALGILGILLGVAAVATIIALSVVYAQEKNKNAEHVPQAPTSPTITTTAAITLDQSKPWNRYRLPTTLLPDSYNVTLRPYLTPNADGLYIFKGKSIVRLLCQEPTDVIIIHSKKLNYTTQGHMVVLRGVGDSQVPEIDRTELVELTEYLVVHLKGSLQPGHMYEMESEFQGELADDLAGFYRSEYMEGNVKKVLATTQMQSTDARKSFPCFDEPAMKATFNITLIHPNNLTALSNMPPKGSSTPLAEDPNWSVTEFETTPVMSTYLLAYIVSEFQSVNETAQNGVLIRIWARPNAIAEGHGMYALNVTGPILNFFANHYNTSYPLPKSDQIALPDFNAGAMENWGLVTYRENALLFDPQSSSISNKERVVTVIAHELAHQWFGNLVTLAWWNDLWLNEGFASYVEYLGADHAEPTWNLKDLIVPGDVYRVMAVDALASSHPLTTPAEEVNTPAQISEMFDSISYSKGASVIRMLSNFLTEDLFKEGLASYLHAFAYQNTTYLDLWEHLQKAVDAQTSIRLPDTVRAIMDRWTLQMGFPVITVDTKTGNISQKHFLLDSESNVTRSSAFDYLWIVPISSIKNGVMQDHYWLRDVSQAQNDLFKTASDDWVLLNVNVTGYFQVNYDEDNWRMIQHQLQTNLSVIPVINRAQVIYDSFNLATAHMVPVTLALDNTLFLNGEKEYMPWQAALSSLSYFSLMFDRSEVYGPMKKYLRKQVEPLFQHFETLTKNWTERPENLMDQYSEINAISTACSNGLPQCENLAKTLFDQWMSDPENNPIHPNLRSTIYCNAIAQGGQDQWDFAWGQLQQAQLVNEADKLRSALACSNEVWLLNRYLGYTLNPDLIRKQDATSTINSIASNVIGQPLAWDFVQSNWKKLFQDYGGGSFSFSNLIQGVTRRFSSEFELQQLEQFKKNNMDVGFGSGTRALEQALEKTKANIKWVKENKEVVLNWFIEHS
Protocol: as §1

[6] = tested on: fuLAP2; assay type: biochemical, Aspergillus fumigatus; conditions: for fuLAP2 hydrolytic activity, percentage of control without any cation / fuLAP2 hydrolytic activity, percentage of control without inhibitor: Leu-MCA substrate
Protocol: as §1

[7] = tested on: gliadin 33 mer; experiment: Digestion of gliadin 33 mer (RP-HPLC, ESI-MS); assay type: biochemical, wheat
[8] = Leu-AMC 5 mM, inhibitor concentrations, pepstatin 0.1 mM
[9] = Leu-AMC 5 mM, inhibitor concentrations

Chain of ruLAP1 (Q5QHG5 19-373): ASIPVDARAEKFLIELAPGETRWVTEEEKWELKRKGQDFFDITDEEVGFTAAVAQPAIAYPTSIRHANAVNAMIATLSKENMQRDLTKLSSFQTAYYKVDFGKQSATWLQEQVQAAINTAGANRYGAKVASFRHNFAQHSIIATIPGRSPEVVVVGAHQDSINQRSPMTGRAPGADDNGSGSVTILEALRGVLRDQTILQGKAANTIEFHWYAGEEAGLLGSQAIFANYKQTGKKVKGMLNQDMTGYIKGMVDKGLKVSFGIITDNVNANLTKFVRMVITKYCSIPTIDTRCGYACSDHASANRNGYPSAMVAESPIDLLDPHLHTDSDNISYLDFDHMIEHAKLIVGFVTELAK

Molecule: [Cl-].[Cl-].[Co+2] [Co^++, CoCl2]
- ruLAP1 hydrolytic activity, percentage of control without any cation ([1]; cation salt 0.5 mM): 210.2%
- ruLAP1 hydrolytic activity, percentage of control without any cation ([1]; cation salt 1 mM): 202.1%
- effect of divalent cation on ruLAP2 activity ([2]; Leu-AMC substrate): highly activated
- ruLAP2 hydrolytic activity, percentage of control without any cation ([2]; cation salt 0.5 mM): 591.2%
- ruLAP2 hydrolytic activity, percentage of control without any cation ([2]; cation salt 1 mM): 789.7%
- increase of the activity of the LAPs ([3]; concentration up to 1 mM, with the exception of fuLAP1): 200% to 900%
- fuLAP1 hydrolytic activity, percentage of control without any cation ([4]; cation salt 0.5 mM): 104.3%
- fuLAP1 hydrolytic activity, percentage of control without any cation ([4]; cation salt 1 mM): 96.5%
- pkLAP hydrolytic activity, percentage of control without any cation ([5]; cation salt 0.5 mM): 876.1%
- pkLAP hydrolytic activity, percentage of control without any cation ([5]; cation salt 1 mM): 899.8%
- effect of divalent cation on fuLAP2 activity ([6]; Leu-AMC substrate): highly activated
- fuLAP2 hydrolytic activity, percentage of control without any cation ([6]; cation salt 0.5 mM): 378.0%
- fuLAP2 hydrolytic activity, percentage of control without any cation ([6]; cation salt 1 mM): 662.7%

Molecule: CC(=O)N[C@@H](CC(C)C)C(=O)N[C@@H](CC(C)C)C(=O)N[C@H](C=O)CCCNC(=N)N [Leupeptin, leupeptin]
- effect of inhibitor on all the LAPs tested [3]: no clear inhibitory effects
- fuLAP2 hydrolytic activity, percentage of control without inhibitor ([6]; inhibitor 100 μM): 61%

Molecule: [Cl][Ni][Cl] [Ni, NiCl2]
- ruLAP1 hydrolytic activity, percentage of control without any cation ([1]; cation salt 0.5 mM): 74.8%
- ruLAP1 hydrolytic activity, percentage of control without any cation ([1]; cation salt 1 mM): 58.1%
- ruLAP2 hydrolytic activity, percentage of control without any cation ([2]; cation salt 0.5 mM): 130.5%
- ruLAP2 hydrolytic activity, percentage of control without any cation ([2]; cation salt 1 mM): 147.9%
- fuLAP1 hydrolytic activity, percentage of control without any cation ([4]; cation salt 0.5 mM): 51.7%
- fuLAP1 hydrolytic activity, percentage of control without any cation ([4]; cation salt 1 mM): 37.2%
- effect of divalent cation on pkLAP activity [5]: highly activated
- pkLAP hydrolytic activity, percentage of control without any cation ([5]; cation salt 0.5 mM): 1187.7%
- pkLAP hydrolytic activity, percentage of control without any cation ([5]; cation salt 1 mM): 1158.7%
- fuLAP2 hydrolytic activity, percentage of control without any cation ([6]; cation salt 0.5 mM): 98.4%
- fuLAP2 hydrolytic activity, percentage of control without any cation ([6]; cation salt 1 mM): 149.3%

Molecule: Cc1ccc(S(=O)(=O)N[C@@H](CCCCN)C(=O)CCl)cc1 [TLCK]
- ruLAP1 hydrolytic activity, percentage of control without inhibitor ([1]; inhibitor 20 μM): 68%
- ruLAP2 hydrolytic activity, percentage of control without inhibitor ([2]; inhibitor 20 μM): 96%
- effect of inhibitor on all the LAPs tested [3]: no clear inhibitory effects
- fuLAP1 hydrolytic activity, percentage of control without inhibitor ([4]; inhibitor 20 μM): 80%
- pkLAP hydrolytic activity, percentage of control without inhibitor ([5]; inhibitor 20 μM): 113%
- fuLAP2 hydrolytic activity, percentage of control without inhibitor ([6]; inhibitor 20 μM): 120%

Molecule: Cc1ccc(S(=O)(=O)N[C@@H](Cc2ccccc2)C(=O)CCl)cc1 [TPCK]
- ruLAP1 hydrolytic activity, percentage of control without inhibitor ([1]; inhibitor 20 μM): 68%
- ruLAP2 hydrolytic activity, percentage of control without inhibitor ([2]; inhibitor 20 μM): 79%
- effect of inhibitor on all the LAPs tested [3]: no clear inhibitory effects
- fuLAP1 hydrolytic activity, percentage of control without inhibitor ([4]; inhibitor 20 μM): 95%
- pkLAP hydrolytic activity, percentage of control without inhibitor ([5]; inhibitor 20 μM): 108%
- fuLAP2 hydrolytic activity, percentage of control without inhibitor ([6]; inhibitor 20 μM): 87%

Molecule: [Cl-].[Cl-].[Zn+2] [Zn, ZnCl2]
- ruLAP1 hydrolytic activity, percentage of control without any cation ([1]; cation salt 0.5 mM): 43.0%
- ruLAP1 hydrolytic activity, percentage of control without any cation ([1]; cation salt 1 mM): 68.9%
- ruLAP2 hydrolytic activity, percentage of control without any cation ([2]; cation salt 0.5 mM): 77.9%
- ruLAP2 hydrolytic activity, percentage of control without any cation ([2]; cation salt 1 mM): 88.9%
- fuLAP1 hydrolytic activity, percentage of control without any cation ([4]; cation salt 0.5 mM): 60.7%
- fuLAP1 hydrolytic activity, percentage of control without any cation ([4]; cation salt 1 mM): 53.2%
- effect of divalent cation on pkLAP activity [5]: highly activated
- pkLAP hydrolytic activity, percentage of control without any cation ([5]; cation salt 0.5 mM): 437.6%
- pkLAP hydrolytic activity, percentage of control without any cation ([5]; cation salt 1 mM): 297.9%
- fuLAP2 hydrolytic activity, percentage of control without any cation ([6]; cation salt 0.5 mM): 51.4%
- fuLAP2 hydrolytic activity, percentage of control without any cation ([6]; cation salt 1 mM): 119.5%

Molecule: CC(C)C[C@@H](N)[C@H](O)C(=O)N[C@H](C(=O)N[C@H](C(=O)N[C@@H](CC(=O)O)C(=O)O)C(C)C)C(C)C [amastatin]
- effect of inhibitor on all the LAPs tested [3]: strongly or totally inhibited
- fuLAP2 hydrolytic activity, percentage of control without inhibitor ([6]; inhibitor 500 μM): 0%

Molecule: N=C(N)c1ccccc1 [benzamidine]
- effect of inhibitor on all the LAPs tested [3]: no clear inhibitory effects
- fuLAP2 hydrolytic activity, percentage of control without inhibitor ([6]; inhibitor 40 μM): 91%

Molecule: CC(C)C[C@H](NC(=O)[C@@H](O)[C@H](N)Cc1ccccc1)C(=O)O [bestatin]
- effect of inhibitor on ruLAP1 activity [1, 8]: inhibited
- effect of inhibitor on ruLAP2 activity [2]: only partial inhibitory effect
- effect of inhibitor on fuLAP1 activity [4, 8]: inhibited
- effect of inhibitor on pkLAP activity [5, 9]: inhibited
- effect of inhibitor on fuLAP2 activity [6, 9]: only partial inhibitory effect
- fuLAP2 hydrolytic activity, percentage of control without inhibitor ([6]; inhibitor 500 μM): 88%

Molecule: c1cnc2c(c1)ccc1cccnc12 [orthophenanthroline]
- ruLAP1 hydrolytic activity, percentage of control without inhibitor ([1]; inhibitor 1 mM): 0%
- ruLAP1 hydrolytic activity, percentage of control without inhibitor ([1]; inhibitor 5 mM): 0%
- ruLAP2 hydrolytic activity, percentage of control without inhibitor ([2]; inhibitor 1 mM): 0%
- ruLAP2 hydrolytic activity, percentage of control without inhibitor ([2]; inhibitor 5 mM): 0%
- fuLAP1 hydrolytic activity, percentage of control without inhibitor ([4]; inhibitor 1 mM): 0%
- fuLAP1 hydrolytic activity, percentage of control without inhibitor ([4]; inhibitor 5 mM): 0%
- pkLAP hydrolytic activity, percentage of control without inhibitor ([5]; inhibitor 1 mM): 0%
- pkLAP hydrolytic activity, percentage of control without inhibitor ([5]; inhibitor 5 mM): 0%
- fuLAP2 hydrolytic activity, percentage of control without inhibitor ([6]; inhibitor 1 mM): 0%
- fuLAP2 hydrolytic activity, percentage of control without inhibitor ([6]; inhibitor 5 mM): 0%

Molecule: O=C(O)c1cc[c]([Hg][Cl])cc1 [p-chloromercuribenzoate, p-chloromercuribenzoic acid]
- ruLAP1 hydrolytic activity, percentage of control without inhibitor ([1]; inhibitor 500 μM): 32%
- effect of inhibitor on ruLAP2 activity [2]: blunted the activity
- ruLAP2 hydrolytic activity, percentage of control without inhibitor ([2]; inhibitor 500 μM): 21%
- fuLAP1 hydrolytic activity, percentage of control without inhibitor ([4]; inhibitor 500 μM): 90%
- pkLAP hydrolytic activity, percentage of control without inhibitor ([5]; inhibitor 500 μM): 59%
- fuLAP2 hydrolytic activity, percentage of control without inhibitor ([6]; inhibitor 500 μM): 96%

Molecule: Chymotrypsin [reference compound]
- digestion of the peptide with other enzymes ([7]; 20 h, combinations with both enzymes at E/S (w:w) 1:50): not able to breakdown the peptide

B1: Cytosolic porcine kidney aminopeptidase: cytosolic leucine aminopeptidase from porcine kidney, Sigma (protein, UniProt P28839 1-519, looked up)
Cytosol aminopeptidase: MFLLPLPAAARVAVRQLSVRRFWGPGPDAANMTKGLVLGIYSKEKEDDAPQFTSAGENFDKLVSGKLREILNISGPPLKAGKTRTFYGLHEDFSSVVVVGLGKKGAGVDDQENWHEGKENIRAAVAAGCRQIQDLEIPSVEVDPCGDAQAAAEGAVLGLYEYDELKQKKKVVVSAKLHGSGDQEAWQRGVLFASGQNLARHLMETPANEMTPTRFAEVIEKNLKSASSKTDVHIRPKSWIEEQEMGSFLSVAKGSEEPPVFLEIHYKGSPDASDPPLVFVGKGITFDSGGISIKASANMDLMRADMGGAATICSTIVSAAKLDLPINLVGLAPLCENMPSGKANKPGDVVRAKNGKTIQVDNTDAEGRLILADALCYAHTFNPKVIINAATLTGAMDIALGSGATGVFTNSSWLWNKLFEASIETGDRVWRMPLFEHYTKQIVDCQLADVNNIGKYRSAGACTAAAFLKEFVTHPKWAHLDIAGVMTNKDEVPYLRKGMAGRPTRTLIEFLLRFSQDSA
- digestion of the 33 mer ([7]; 37° C., 1 mM CoCl2, pH7.2): totally inactive
